Legend:
[1] = system: large bowel cancer cells SW480 (K-RasG12V); experiment: Cell growth inhibition, adherent cells SW480; type: cell-based; details: Homo sapiens, 72 hours, read-out: SW480 (KRasG12V) % inhibition at 10 μM
Protocol: The cell growth inhibitory activity of the compound of the present invention on human culture cells having active-type mutation in Ras was evaluated by the below-mentioned method using suspension cancer cells {acute lymphoblastic leukemia cells CCRF-CEM (K-RasG12D), promyelocytic leukemia cells HL60 (N-RasQ61L), acute lymphoblastic leukemia cells MOLT4 (N-RasG12C), and small cell lung cancer cells SHP77 (K-RasG12V)} and adherent cancer cells {large bowel cancer cells SW480 (K-RasG12V) and large bowel cancer cell SW620 (K-RasG12V)}.
(Case of adherent cells) The cells suspended in a medium containing 10% FBS (1 to 2×10^4 cells/well) were seeded on a 96-well plate, and were then cultured at 37° C. in the presence of […]. Thereafter, the medium was exchanged with a medium containing […], to which each compound solution (final DMSO concentration: […]) had been added, and the cells were then cultured at 37° C. in the presence of […] for 72 hours.
Thereafter, the number of viable cells was measured using Cell Counting Reagent (Nacalai Tesque) in accordance with the manufacturer's instructions. Inhibition by the test compound was determined according to the following equation: […]

[2] = molecular target: GTPγS-bound human HRasG12V / human c-Raf-1 Ras binding domain (RBD) (Homo sapiens (Human), UniProt P01112, G12V); experiment: Ras-Raf binding inhibition ELISA; details: anti-HRas antibody C-20; read-out: ELISA IC50 (μM): 1st Ab_C-20
In short: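 GST-c-Raf-1 RBD (aa 50-131) immobilized on glutathione plates, then GTPγS-loaded full-length HRasG12V added with compound (final 10% DMSO), 1 h at 30 °C, pH 7.4 Tris buffer. Bound Ras detected by anti-HRas antibody (C-20 or 259) and HRP secondary, TMB read at OD450; IC50 from inhibition.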

[3] = system: phosphorylated ERK (pERK) in HL60 cells; experiment: Ras-Raf signaling inhibition at culture cell level, pERK; type: cell-based; details: Homo sapiens, HL-60; HL60 (N-RasQ61L), 1 μM test compound, 3 hours
Protocol: The Ras-Raf signaling inhibitory activity of the compound of the present invention at a culture cell level was evaluated by the following method.
The HL60 cells described in Test Example 2 suspended in a medium containing 0.5% (v/v) FBS with each compound solution (final DMSO concentration: 1%), were seeded on a 12-well plate (2 to 4×10^5 cells/well), and the resulting mixture was then cultured at 37° C. in the presence of 5% CO2 for 3 hours.
After completion of the cell culture, proteins were extracted from the cells, using RIPA Buffer (Nacalai Tesque) containing a mixture of protease inhibitors and phosphatase inhibitors. An equivalent amount of protein was separated by standard SDS-PAGE and was then transferred onto a PVDF membrane. In order to detect the activation (phosphorylation) of MEK and ERK, downstream molecules of the Ras-Raf signaling pathway, the membrane was probed with 1000-fold diluted primary antibodies {phosphorylated MEK (pMEK: #9121), phosphorylated ERK (pERK: #9101), total MEK (tMEK: #9122), and total ERK (tERK: 9102); all from Cell signaling}, and then with a 1000-fold diluted horseradish peroxidase-labeled secondary antibody against rabbit immunoglobulin G. The immunoreactive signals were colored with EzWestLumi One (ATTO), and were then detected by Fusion FX (Vilber). Signal intensity was quantified by pixel counting. Inhibition by the test compound was determined according to the following equation: […]

Chain of GTPγS-bound human HRasG12V / human c-Raf-1 Ras binding domain (RBD) (P01112 whole entry G12V, the tested form may be a part): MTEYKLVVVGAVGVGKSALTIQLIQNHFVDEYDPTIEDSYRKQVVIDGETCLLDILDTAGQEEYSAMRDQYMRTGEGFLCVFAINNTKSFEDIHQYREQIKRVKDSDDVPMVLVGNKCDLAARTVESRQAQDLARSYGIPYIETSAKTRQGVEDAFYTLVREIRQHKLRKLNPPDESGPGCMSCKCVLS

IC50 [2]: 3.9 µM
SMILES: CC(=O)N1/C(=C\c2nc3cc(C(=O)N4CCOCC4)ccc3s2)C(=O)c2ccccc21 [Example 47, (Z)-1-acetyl-2-((5-(morpholine-4-carbonyl)benzo [d]thiazol-2-yl)-methylene)-indolin-3-one]
inhibition at 10 µM [1]: 51%
inhibition at 1 µM [3]: 94%
